Experiment [1] concerns VERO. In words: Cytotoxicity (anticancer screening) on VERO. The format is cell-based. The following applies: Chlorocebus sabaeus, normal adult African green monkey kidney cell line, 72 h of incubation. From the text: (§1) Keeping the aforementioned details in mind, the objective of this study was to synthesize new pharmaceuticals for anticancer assessment as a trial to produce newer antitumor drugs with increased activity and minimal adverse effects. Human hepatocellular liver carcinoma cell line (HepG2), human lung fibroblast cell line (WI-38), human breast adenocarcinoma cell line (MCF-7), and normal adult African green monkey kidney cell line (VERO) were the four different types of […] cell lines used to test the anticancer activity of all newly synthesized compounds (Fig. 5).
(§2) It was carried out according to the previously reported work[48].

For experiment [2], the system named is MCF-7. In words: Cytotoxicity (anticancer screening) on MCF-7. The format is cell-based, human. The note with it: for IC50: MCF7, human breast adenocarcinoma cell line, 72 h of incubation; for activity class against MCF-7: SAR statement, four tested cell lines.
Description: as §1, §2

In experiment [3] the test system is WI-38. In words: Cytotoxicity (anticancer screening) on WI-38. The format is cell-based, human. The note with it: for IC50: WI-38, human lung fibroblast cell line, 72 h of incubation; for activity class against WI-38: SAR statement, four tested cell lines.
Description: as §1, §2

The test system of experiment [4] is HepG2. In words: Cytotoxicity (anticancer screening) on HepG2. The format is cell-based, human. The note with it: for IC50: HepG2, human hepatocellular liver carcinoma cell line, 72 h of incubation; for activity class against HepG2: SAR statement, four tested cell lines.
Description: as §1, §2

≈ marks a conversion by molar mass, not a printed value.

As to `Cc1cc(=O)oc2c1ccc1oc(=N)c(C#N)cc12` [Compound 3, 8-imino-4-methyl-2-oxo-2 H,8 H-pyrano[2,3-f]chromene-9-carbonitrile], the IC50 was 71.02 ± 0.05 µg/mL (≈ 282 µM) in experiment [1], 70 ± 0.06 µg/mL (≈ 278 µM) in experiment [2], 68.2 ± 0.07 µg/mL (≈ 270 µM) in experiment [3] and 59 ± 0.22 µg/mL (≈ 234 µM) in experiment [4].

`Cc1cc(=O)oc2c1ccc1oc3nc(CC#N)nc(=N)c-3cc12` [Compound 4, 2-(11-Imino-4-methyl-2-oxo-2 H,11 H-pyrano[2’,3’:5,6]chromeno[2,3-d]pyrimidin-9-yl) acetonitrile]: the IC50 in experiment [1] stood at 34.1 ± 0.15 µg/mL (≈ 107 µM); in experiment [2], 31.4 ± 0.11 µg/mL (≈ 98.7 µM); in experiment [3], 31 ± 0.01 µg/mL (≈ 97.4 µM); in experiment [4] it was 24.5 ± 0.11 µg/mL (≈ 77 µM).

As for `Cc1cc(=O)oc2c3c(ccc12)Oc1nc(CC#N)nc2nc(N)c(C#N)c-3c12` [Compound 5, 2-amino-5-(cyanomethyl)-10-methyl-12-oxo-12 H-7,13-dioxa-3,4,6-triazabenzo[no]tetraphene-1-carbonitrile], the half-inhibitory concentration (IC50) stood at 31.2 ± 0.02 µg/mL (≈ 81.6 µM) in experiment [1], 30 ± 1.01 µg/mL (≈ 78.5 µM) in experiment [2], 27.5 ± 0.31 µg/mL (≈ 71.9 µM) in experiment [3] and 21.2 ± 1.22 µg/mL (≈ 55.4 µM) in experiment [4].

As to `O=c1[nH]cc(F)c(=O)[nH]1` [Compound 5-Flu, 5-fluorouracil, reference compound], the 50% inhibitory concentration (IC50) in experiment [1] worked out at 4 ± 0.04 µg/mL (≈ 30.8 µM); in experiment [2] it was 3 ± 0.02 µg/mL (≈ 23.1 µM); in experiment [3], 5.5 µg/mL (≈ 42.3 µM); in experiment [4] it was 2.5 ± 1.03 µg/mL (≈ 19.2 µM).

For the compound `Cc1cc(=O)oc2c3c(ccc12)Oc1nc(CC#N)nc2nc(-c4ccccc4)cc-3c12` [Compound 6, 2-(10-Methyl-12-oxo-2-phenyl-12 H-7,13-dioxa-3,4,6-triazabenzo[no]tetraphene-5-yl) acetonitrile], the IC50 came to 24.1 ± 0.19 µg/mL (≈ 57.6 µM) in experiment [1], 22.5 ± 0.04 µg/mL (≈ 53.8 µM) in experiment [2], 26 ± 0.21 µg/mL (≈ 62.1 µM) in experiment [3] and 19.1 ± 1.13 µg/mL (≈ 45.6 µM) in experiment [4].

As for `Cc1cc(=O)oc2c3c(ccc12)Oc1nc(CC#N)nc2nc4c(c-3c12)CCC4` [Compound 7, 2-(14-Methyl-12-oxo-9,10-dihydro-8 H,12 H-3,11-dioxa-4,6,7-triazaindeno[6,5,4-no]tetraphen-5-yl)acetonitrile], in experiment [1], the IC50 came out at 11.5 ± 0.05 µg/mL (≈ 30.1 µM). Moreover, in experiment [2], half-maximal inhibition (IC50) required 9.5 ± 0.04 µg/mL (≈ 24.8 µM) and the “activity class against MCF-7” value is recorded as “very strong (1–10 (very strong))”. Further, in experiment [3], the “activity class against WI-38” value is “very strong (1–10 (very strong))” and inhibition was half-maximal at 9.9 ± 1.04 µg/mL (≈ 25.9 µM) (IC50). Besides, in experiment [4], the IC50 was 9.6 ± 1.22 µg/mL (≈ 25.1 µM) and the “activity class against HepG2” value is “very strong (1–10 (very strong))”.

Turning to `Cc1cc(=O)oc2c3c(ccc12)Oc1nc(CC#N)nc2nc4c(c-3c12)CCCC4` [Compound 8, 2-(15-Methyl-13-oxo-8,9,10,11-tetrahydro-13 H-3,12-dioxa-4,6,7-triazanaphtho[3,2,1-no]tetraphen-5-yl)acetonitrile], the IC50 in experiment [1] amounted to 5.7 ± 0.06 µg/mL (≈ 14.4 µM). In addition, in experiment [2], the IC50 turned out to be 5.1 ± 0.18 µg/mL (≈ 12.9 µM) and the “activity class against MCF-7” value was “very strong (1–10 (very strong))”. In experiment [3], the “activity class against WI-38” value is “very strong (1–10 (very strong))” and the IC50 was found to be 7.5 ± 0.01 µg/mL (≈ 18.9 µM). Besides, in experiment [4], the IC50 was found to be 4.9 ± 0.11 µg/mL (≈ 12.4 µM) and the “activity class against HepG2” value is listed as “very strong (1–10 (very strong))”.

`Cc1cc(=O)oc2c3c(ccc12)Oc1nc(CC#N)nc2nc4c(c-3c12)CCCCC4` [Compound 9, 2-(16-Methyl-14-oxo-9,10,11,12-tetrahydro-8 H,14 H-3,13-dioxa-4,6,7-triazacyclohepta[4,5]benzo[1,2,3-no]tetraphen-5-yl)acetonitrile] yielded an IC50 in experiment [1] of 6.6 ± 0.02 µg/mL (≈ 16.1 µM). Also, in experiment [2], half-maximal inhibition (IC50) was put at 7.2 ± 1.02 µg/mL (≈ 17.5 µM) and the “activity class against MCF-7” value is listed as “very strong (1–10 (very strong))”. In addition, in experiment [3], the “activity class against WI-38” value is reported as “very strong (1–10 (very strong))” and the IC50 stood at 5.9 ± 0.03 µg/mL (≈ 14.4 µM). In experiment [4], the IC50 stood at 5.4 ± 1.22 µg/mL (≈ 13.2 µM) and the “activity class against HepG2” value is given as “very strong (1–10 (very strong))”.

`Cc1cc(=O)oc2c3c(ccc12)Oc1nc(CC#N)nc2nc4c(c-3c12)CCCCCC4` [Compound 10, 2-(17-Methyl-15-oxo-8,9,10,11,12,13-hexahydro-15 H-3,14-dioxa-4,6,7-triazacycloocta[4,5]benzo[1,2,3-no]tetraphen-5-yl)acetonitrile]: the IC50 in experiment [1] was 8.2 ± 1.04 µg/mL (≈ 19.3 µM). Also, in experiment [2], the IC50 came to 8.9 ± 1.02 µg/mL (≈ 21 µM) and the “activity class against MCF-7” value was “very strong (1–10 (very strong))”. In addition, in experiment [3], the “activity class against WI-38” value is reported as “very strong (1–10 (very strong))” and the IC50 amounted to 7.8 ± 0.1 µg/mL (≈ 18.4 µM). Also, in experiment [4], the IC50 amounted to 5.8 ± 1.03 µg/mL (≈ 13.7 µM) and the “activity class against HepG2” value is given as “very strong (1–10 (very strong))”.

On to `Cc1cc(=O)oc2c1ccc1[nH]c(=O)c(C#N)cc12` [Compound 11, 4-Methyl-2,8-dioxo-7,8-dihydro-2 H-pyrano[2,3-f]quinoline-9-carbonitrile], for which the IC50 in experiment [1] amounted to 35.5 ± 0.01 µg/mL (≈ 141 µM); in experiment [2], 33.3 ± 1.06 µg/mL (≈ 132 µM); in experiment [3], 39.01 ± 0.07 µg/mL (≈ 155 µM); in experiment [4], 32.2 ± 1.22 µg/mL (≈ 128 µM).

As to `Cc1cc(=O)oc2c1ccc1oc(=N)c(C(N)=O)cc12` [Compound 12, 8-Imino-4-methyl-2-oxo-2 H,8 H-pyrano[2,3-f]chromene-9-carboxamide], the IC50 in experiment [1] was found to be 51.3 ± 1.05 µg/mL (≈ 190 µM); in experiment [2] it was 49.4 ± 0.19 µg/mL (≈ 183 µM); in experiment [3], 48.2 ± 1.04 µg/mL (≈ 178 µM); in experiment [4], 37.5 ± 1.13 µg/mL (≈ 139 µM).

Turning to `Cc1cc(=O)oc2c3c(ccc12)NC(=O)C1=C(N)OC2=C(CCC2)C13` (centres unmarked) [Compound 13, 2-Amino-7-methyl-10c,11,12,13-tetrahydro-3 H-cyclopenta[5,6]pyrano[3,4-c]pyrano[2,3-f]quinoline-3,9(4 H)-dione], the IC50 in experiment [1] stood at 58.2 ± 1.05 µg/mL (≈ 173 µM); in experiment [2] it was 53 ± 0.19 µg/mL (≈ 158 µM); in experiment [3], 56 ± 1.14 µg/mL (≈ 166 µM); in experiment [4], 45.2 ± 1.13 µg/mL (≈ 134 µM).

With `Cc1cc(=O)oc2c3c(ccc12)OC(N)=C1C(=O)NC2=C(CCC2)C13` (centres unmarked) [Compound 14, 3-Amino-7-methyl-10c,11,12,13-tetrahydro-9 H-cyclopenta[b]pyrano [2’,3’:5,6]chromeno [4,3-d]pyridine-2,9(1 H)-dione], the IC50 in experiment [1] turned out to be 58 ± 1.02 µg/mL (≈ 172 µM); in experiment [2] it was 52 ± 0.01 µg/mL (≈ 155 µM); in experiment [3] it was 56 ± 0.32 µg/mL (≈ 166 µM); in experiment [4], 49 ± 1.22 µg/mL (≈ 146 µM).

As for `Cc1cc(=O)oc2c1ccc1oc(=O)c(C#N)cc12` [Compound 15, 4-Methyl-2,8-dioxo-2 H,8 H-pyrano[2,3-f]chromene-9-carbonitrile], the IC50 in experiment [1] came out at 40.3 ± 1.19 µg/mL (≈ 159 µM); in experiment [2], 37.03 ± 0.04 µg/mL (≈ 146 µM); in experiment [3], 38 ± 1.22 µg/mL (≈ 150 µM); in experiment [4], 35.2 ± 1.13 µg/mL (≈ 139 µM).

Turning to `CCOC(=O)c1cc2c(ccc3c(C)cc(=O)oc32)oc1=N` [Compound 16, ethyl 8-imino-4-methyl-2-oxo-2 H,8 H-pyrano[2,3-f]chromene-9-carboxylate], the IC50 in experiment [1] was determined as 57.5 ± 0.05 µg/mL (≈ 192 µM); in experiment [2], 52.1 ± 0.04 µg/mL (≈ 174 µM); in experiment [3], 59.3 ± 1.04 µg/mL (≈ 198 µM); in experiment [4], 52.5 ± 1.22 µg/mL (≈ 175 µM).

As for `Cc1cc(=O)oc2c1ccc1oc(=N)c3c(=O)oc4c(c3c12)CCC4` [Compound 17, 3-Imino-7-methyl-3,11,12,13-tetrahydro-2 H,9 H-cyclopenta[5,6]pyrano[3,4-c]pyrano [2,3-f]chromene-2,9-dione], the IC50 in experiment [1] stood at 56.2 ± 1.06 µg/mL (≈ 168 µM); in experiment [2], 52.5 ± 0.18 µg/mL (≈ 157 µM); in experiment [3] it was 53.5 ± 0.1 µg/mL (≈ 160 µM); in experiment [4] it was 40.2 ± 0.23 µg/mL (≈ 120 µM).

In the case of `CCOC(=O)c1cc2c(ccc3c(C)cc(=O)oc32)oc1=O` [Compound 18, Ethyl 4-methyl-2,8-dioxo-2 H,8 H-pyrano[2,3-f]chromene-9-carboxylate], the IC50 worked out at 66.5 ± 1.02 µg/mL (≈ 221 µM) in experiment [1], 57 ± 1.23 µg/mL (≈ 190 µM) in experiment [2], 60.4 ± 0.03 µg/mL (≈ 201 µM) in experiment [3] and 54 ± 0.22 µg/mL (≈ 180 µM) in experiment [4].

By IC50 is commonly meant the concentration that gives 50% inhibition.

The values above are taken from publication PMC12181260, “Design and synthesis of novel pyridopyrimidine moieties linked to coumarin ring of potentially active cytotoxic agents and their docking study” (Scientific Reports, 2025).
